# Assay results: patent US10792289B2 (Horizon Orphan LLC, priority 2009, dated 2020)
# System: stable CF patients
# Test: Phase 2 study: pulmonary function (FEV1, FVC, FEF 25-75)
# Assay type: in vivo, human
# Design: FEF 25-75, Median / FEV1, Day 14, Mean / FEF 25-75, Mean: unit not given here; FEV1, Day 1, Mean / FEV1, Day 1, Median / FEV1, Day 14, Median / FEV1, Day 28, Mean / FEV1, Day 28, Median: unit: L
# Conditions: EE population
# Method: The following dosage regimens (as nebulizer loaded doses) were evaluated: 120 mg QD (daily); 240 mg QD (daily); and 240 mg BID (twice daily).
# Efficacy endpoints including clinical endpoints, pulmonary function tests, and additional microbiological parameters were assessed as change from Day 1 to subsequent visits where the endpoint data was collected. Time to need for intravenous/oral/inhaled anti-pseudomonal antimicrobials were assessed from Day 1 until final visit using survival analysis. The primary population for efficacy analysis was the EE population, but efficacy endpoints were also analyzed using the MITT population.
# Changes in FEV1 (forced expiratory volume in 1 second), FVC (forced vital capacity) and FEF 25-75 (forced expiratory flow 25-75%) from Day 1 to all subsequent visits were determined for patients. Tables 26 and 27 summarize the results for FEV1 measurements in EE and MITT populations, respectively. FIGS. 7 and 8 show graphs of percent change in FEV1 (L) and percent change in FEV1(L) vs. placebo, respectively, at Day 28 for the EET population treated with placebo, 120 mg QD, 240 mg QD, or 240 mg BID. […] Tables 28 and 29 summarize the results for predicted FEVI measurements in EE and MITT populations, respectively. Tables 30 and 31 summarize results for FEF 25-75 measurements in EE and MITT populations, respectively.
# [1] = Day 1 (baseline), combined 240 mg QD and BID
# [2] = Day 14, combined 240 mg QD and BID
compound,measurement,setting,value
"C[C@H]1COc2c(N3CCN(C)CC3)c(F)cc3c(=O)c(C(=O)O)cn1c23 [Levofloxacin, levofloxacin]","% predicted FEV1, Day 1, Mean",120 mg QD,54.0 % predicted
same,"% predicted FEV1, Day 1, Median",120 mg QD,53.0 % predicted
same,"% predicted FEV1, Day 14, Mean",120 mg QD,54.7 % predicted
same,"% predicted FEV1, Day 14, Median",120 mg QD,53.0 % predicted
same,"% predicted FEV1, Day 28, Mean",120 mg QD,55.0 % predicted
same,"% predicted FEV1, Day 28, Median",120 mg QD,52.0 % predicted
same,"FEF 25-75, Percent Change from Baseline to Day 14, Mean",120 mg QD,0.41%
same,"FEF 25-75, Percent Change from Baseline to Day 14, Median",120 mg QD,0.45%
same,"FEF 25-75, Percent Change from Baseline to Day 28, Mean",120 mg QD,0.73%
same,"FEF 25-75, Percent Change from Baseline to Day 28, Median",120 mg QD,2.70%
same,"FEV1, Day 1, Mean",120 mg QD,1.99
same,"FEV1, Day 1, Median",120 mg QD,1.87
same,"FEV1, Day 14, Mean",120 mg QD,2.00
same,"FEV1, Day 14, Median",120 mg QD,1.82
same,"FEV1, Day 28, Mean",120 mg QD,2.03
same,"FEV1, Day 28, Median",120 mg QD,1.91
same,"FEV1, Percent Change from Baseline to Day 14, Mean",120 mg QD,1.13%
same,"FEV1, Percent Change from Baseline to Day 14, Median",120 mg QD,0.56%
same,"FEV1, Percent Change from Baseline to Day 28, Mean",120 mg QD,1.71%
same,"FEV1, Percent Change from Baseline to Day 28, Median",120 mg QD,1.06%
same,"% predicted FEV1, Day 1, Mean",240 mg BID,48.2 % predicted
same,"% predicted FEV1, Day 1, Median",240 mg BID,45.5 % predicted
same,"% predicted FEV1, Day 14, Mean",240 mg BID,51.7 % predicted
same,"% predicted FEV1, Day 14, Median",240 mg BID,49.5 % predicted
same,"% predicted FEV1, Day 28, Mean",240 mg BID,50.5 % predicted
same,"% predicted FEV1, Day 28, Median",240 mg BID,49.0 % predicted
same,"FEF 25-75, Percent Change from Baseline to Day 14, Mean",240 mg BID,16.99%
same,"FEF 25-75, Percent Change from Baseline to Day 14, Median",240 mg BID,11.66%
same,"FEF 25-75, Percent Change from Baseline to Day 28, Mean",240 mg BID,13.11%
same,"FEF 25-75, Percent Change from Baseline to Day 28, Median",240 mg BID,5.71%
same,"FEV1, Day 1, Mean",240 mg BID,1.86
same,"FEV1, Day 1, Median",240 mg BID,1.70
same,"FEV1, Day 14, Mean",240 mg BID,2.02
same,"FEV1, Day 14, Median",240 mg BID,1.88
same,"FEV1, Day 28, Mean",240 mg BID,1.90
same,"FEV1, Percent Change from Baseline to Day 14, Mean",240 mg BID,8.87%
same,"FEV1, Percent Change from Baseline to Day 14, Median",240 mg BID,7.51%
same,"FEV1, Percent Change from Baseline to Day 28, Mean",240 mg BID,5.05%
same,"FEV1, Percent Change from Baseline to Day 28, Median",240 mg BID,4.55%
same,"% predicted FEV1, Day 1, Mean",240 mg QD,55.9 % predicted
same,"% predicted FEV1, Day 1, Median",240 mg QD,56.0 % predicted
same,"% predicted FEV1, Day 14, Mean",240 mg QD,57.7 % predicted
same,"% predicted FEV1, Day 14, Median",240 mg QD,62.0 % predicted
same,"% predicted FEV1, Day 28, Mean",240 mg QD,57.3 % predicted
same,"% predicted FEV1, Day 28, Median",240 mg QD,58.0 % predicted
same,"FEF 25-75, Percent Change from Baseline to Day 14, Mean",240 mg QD,9.58%
same,"FEF 25-75, Percent Change from Baseline to Day 14, Median",240 mg QD,4.41%
same,"FEF 25-75, Percent Change from Baseline to Day 28, Mean",240 mg QD,4.70%
same,"FEF 25-75, Percent Change from Baseline to Day 28, Median",240 mg QD,5.77%
same,"FEV1, Day 1, Mean",240 mg QD,2.09
same,"FEV1, Day 1, Median",240 mg QD,2.02
same,"FEV1, Day 14, Mean",240 mg QD,2.16
same,"FEV1, Day 14, Median",240 mg QD,2.09
same,"FEV1, Day 28, Mean",240 mg QD,2.13
same,"FEV1, Day 28, Median",240 mg QD,2.15
same,"FEV1, Percent Change from Baseline to Day 14, Mean",240 mg QD,3.84%
same,"FEV1, Percent Change from Baseline to Day 14, Median",240 mg QD,1.92%
same,"FEV1, Percent Change from Baseline to Day 28, Mean",240 mg QD,2.51%
same,"FEV1, Percent Change from Baseline to Day 28, Median",240 mg QD,1.28%
same,"% predicted FEV1, Day 1, Mean",Combined 240 mg QD and BID,52.1 % predicted
same,"% predicted FEV1, Day 1, Median",Combined 240 mg QD and BID,51.0 % predicted
same,"% predicted FEV1, Day 14, Mean",Combined 240 mg QD and BID,54.7 % predicted
same,"% predicted FEV1, Day 14, Median",Combined 240 mg QD and BID,52.0 % predicted
same,"% predicted FEV1, Day 28, Mean",Combined 240 mg QD and BID,54.0 % predicted
same,"% predicted FEV1, Day 28, Median",Combined 240 mg QD and BID,54.0 % predicted
same,"FEF 25-75, Percent Change from Baseline to Day 14, Mean",Combined 240 mg QD and BID,13.23%
same,"FEF 25-75, Percent Change from Baseline to Day 14, Median",Combined 240 mg QD and BID,8.79%
same,"FEF 25-75, Percent Change from Baseline to Day 28, Mean",Combined 240 mg QD and BID,8.78%
same,"FEF 25-75, Percent Change from Baseline to Day 28, Median",Combined 240 mg QD and BID,5.74%
same,"FEV1, Day 1, Mean",Combined 240 mg QD and BID,1.98
same,"FEV1, Day 1, Median",Combined 240 mg QD and BID,1.81
same,"FEV1, Day 14, Mean",Combined 240 mg QD and BID,2.09
same,"FEV1, Day 14, Median",Combined 240 mg QD and BID,2.03
same,"FEV1, Day 28, Mean",Combined 240 mg QD and BID,2.02
same,"FEV1, Day 28, Median",Combined 240 mg QD and BID,1.98
same,"FEV1, Percent Change from Baseline to Day 14, Mean",Combined 240 mg QD and BID,6.32%
same,"FEV1, Percent Change from Baseline to Day 14, Median",Combined 240 mg QD and BID,3.94%
same,"FEV1, Percent Change from Baseline to Day 28, Mean",Combined 240 mg QD and BID,3.75%
same,"FEV1, Percent Change from Baseline to Day 28, Median",Combined 240 mg QD and BID,2.80%
same,"FEF 25-75, Mean","Day 1 (baseline), 120 mg QD",1.17
same,"FEF 25-75, Median","Day 1 (baseline), 120 mg QD",0.98
same,"FEF 25-75, Mean","Day 1 (baseline), 240 mg BID",0.85
same,"FEF 25-75, Median","Day 1 (baseline), 240 mg BID",0.68
same,"FEF 25-75, Mean","Day 1 (baseline), 240 mg QD",1.22
same,"FEF 25-75, Median","Day 1 (baseline), 240 mg QD",1.10
same,"FEF 25-75, Mean",[1],1.04
same,"FEF 25-75, Median",[1],0.83
same,"FEF 25-75, Mean","Day 14, 120 mg QD",1.18
same,"FEF 25-75, Median","Day 14, 120 mg QD",0.99
same,"FEF 25-75, Mean","Day 14, 240 mg BID",1.00
same,"FEF 25-75, Median","Day 14, 240 mg BID",0.78
same,"FEF 25-75, Mean","Day 14, 240 mg QD",1.33
same,"FEF 25-75, Median","Day 14, 240 mg QD",1.11
same,"FEF 25-75, Mean",[2],1.17
same,"FEF 25-75, Median",[2],0.92
same,"FEF 25-75, Mean","Day 28, 120 mg QD",1.23
same,"FEF 25-75, Median","Day 28, 120 mg QD",1.03
same,"FEF 25-75, Mean","Day 28, 240 mg BID",0.93
same,"FEF 25-75, Median","Day 28, 240 mg BID",0.78
same,"FEF 25-75, Mean","Day 28, 240 mg QD",1.27
same,"FEF 25-75, Median","Day 28, 240 mg QD",1.15
same,"FEF 25-75, Mean","Day 28, combined 240 mg QD and BID",1.10
